{"source": "paper PMC10257182", "about": "“Discovery of senolytics using machine learning” (Nature Communications, 2023)", "type_in_all_cases": "cell-based, human", "key": {"[1]": {"system": "non-senescent control A549 cells", "assay": "Nuclei count senolytic assay, TIS model, non-senescent control cells", "conditions": "Homo sapiens, A549, Control cells, mean, read-out: Mean % Cell Survival", "how_it_was_run": "(§1)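 Nuclei counting by high-content imaging after 72 h compound treatment of senescent (etoposide-induced) versus control A549 cells. Top dose 10 μM final, lowest 10 nM.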"}, "[2]": {"system": "non-senescent control IMR90 ER:RAS cells", "assay": "Nuclei count (Hoechst, high content imaging) senolytic assay, OIS model, non-senescent control cells", "conditions": "Homo sapiens", "how_it_was_run": "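We compared total nuclei counts between senescent and non-senescent IMR90 ER:RAS cells after 72 h compound exposure (10 nM–10 μM). Hoechst staining followed fixation and permeabilisation; ouabain served as senolytic positive control.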"}, "[3]": {"system": "senescent A549 cells (etoposide-induced)", "assay": "Nuclei count senolytic assay, therapy-induced senescence (TIS) model, senescent cells", "conditions": "Homo sapiens, A549, Senescent cells, mean, read-out: Mean % Cell Survival", "how_it_was_run": "as §1"}}, "note": "Like-named read-outs stand apart in the source and are kept apart here.", "data": [{"compound": "Cc1cnc(C(=O)N[C@H]2CCCCC/C=C\\[C@@H]3C[C@@]3(C(=O)NS(=O)(=O)C3CC3)NC(=O)[C@@H]3C[C@@H](Oc4nc5ccccc5c5ccccc45)CN3C2=O)cn1", "note": "[Paritaprevir, paritaprevir, reference compound]", "values": [{"measurement": "viability at 10 µM", "setting": "[1]; log (dose) [M] -5", "result": 96.8, "unit": "%"}, {"measurement": "viability at 4.68 µM", "setting": "[1]; log (dose) [M] -5.33", "result": 93, "unit": "%"}, {"measurement": "viability at 2.19 µM", "setting": "[1]; log (dose) [M] -5.66", "result": 96, "unit": "%"}, {"measurement": "viability at 1 µM", "setting": "[1]; log (dose) [M] -6", "result": 95.4, "unit": "%"}, {"measurement": "viability at 0.468 µM", "setting": "[1]; log (dose) [M] -6.33", "result": 98.6, "unit": "%"}, {"measurement": "viability at 0.219 µM", "setting": "[1]; log (dose) [M] -6.66", "result": 97.7, "unit": "%"}, {"measurement": "viability at 0.1 µM", "setting": "[1]; log (dose) [M] -7", "result": 95.4, "unit": "%"}, {"measurement": "viability at 0.0468 µM", "setting": "[1]; log (dose) [M] -7.33", "result": 95.7, "unit": "%"}, {"measurement": "viability at 0.0219 µM", "setting": "[1]; log (dose) [M] -7.66", "result": 95.5, "unit": "%"}, {"measurement": "viability at 0.01 µM", "setting": "[1]; log (dose) [M] -8", "result": 101, "unit": "%"}, {"measurement": "viability at 10 µM", "setting": "[2]; IMR-90, 72 h, Control, log (dose) [M] -5, 72 h, mean n=3 (Fig 3C), read-out: Mean % Cell Survival", "result": 95, "unit": "%"}, {"measurement": "viability at 4.677 µM", "setting": "[2]; IMR-90, 72 h, Control, log (dose) [M] -5.33, 72 h, mean n=3 (Fig 3C), read-out: Mean % Cell Survival", "result": 90.1, "unit": "%"}, {"measurement": "viability at 2.188 µM", "setting": "[2]; IMR-90, 72 h, Control, log (dose) [M] -5.66, 72 h, mean n=3 (Fig 3C), read-out: Mean % Cell Survival", "result": 102, "unit": "%"}, {"measurement": "viability at 1 µM", "setting": "[2]; IMR-90, 72 h, Control, log (dose) [M] -6, 72 h, mean n=3 (Fig 3C), read-out: Mean % Cell Survival", "result": 78.8, "unit": "%"}, {"measurement": "viability at 0.4677 µM", "setting": "[2]; IMR-90, 72 h, Control, log (dose) [M] -6.33, 72 h, mean n=3 (Fig 3C), read-out: Mean % Cell Survival", "result": 87.9, "unit": "%"}, {"measurement": "viability at 0.2188 µM", "setting": "[2]; IMR-90, 72 h, Control, log (dose) [M] -6.66, 72 h, mean n=3 (Fig 3C), read-out: Mean % Cell Survival", "result": 82.7, "unit": "%"}, {"measurement": "viability at 0.1 µM", "setting": "[2]; IMR-90, 72 h, Control, log (dose) [M] -7, 72 h, mean n=3 (Fig 3C), read-out: Mean % Cell Survival", "result": 81.5, "unit": "%"}, {"measurement": "viability at 0.04677 µM", "setting": "[2]; IMR-90, 72 h, Control, log (dose) [M] -7.33, 72 h, mean n=3 (Fig 3C), read-out: Mean % Cell Survival", "result": 87.1, "unit": "%"}, {"measurement": "viability at 0.02188 µM", "setting": "[2]; IMR-90, 72 h, Control, log (dose) [M] -7.66, 72 h, mean n=3 (Fig 3C), read-out: Mean % Cell Survival", "result": 88.3, "unit": "%"}, {"measurement": "viability at 0.01 µM", "setting": "[2]; IMR-90, 72 h, Control, log (dose) [M] -8, 72 h, mean n=3 (Fig 3C), read-out: Mean % Cell Survival", "result": 101, "unit": "%"}, {"measurement": "viability at 10 µM", "setting": "[2]; IMR-90, Control cells, log (dose) [M] -5, individual replicates, SUP FIG 4C, read-out: % Cell Survival", "result": 93.1, "unit": "%"}, {"measurement": "viability at 4.677 µM", "setting": "[2]; IMR-90, Control cells, log (dose) [M] -5.33, individual replicates, SUP FIG 4C, read-out: % Cell Survival", "result": 86.6, "unit": "%"}, {"measurement": "viability at 0.4677 µM", "setting": "[2]; IMR-90, Control cells, log (dose) [M] -6.33, individual replicates, SUP FIG 4C, read-out: % Cell Survival", "result": 89.5, "unit": "%"}, {"measurement": "viability at 0.2188 µM", "setting": "[2]; IMR-90, Control cells, log (dose) [M] -6.66, individual replicates, SUP FIG 4C, read-out: % Cell Survival", "result": 83.1, "unit": "%"}, {"measurement": "viability at 0.1 µM", "setting": "[2]; IMR-90, Control cells, log (dose) [M] -7, individual replicates, SUP FIG 4C, read-out: % Cell Survival", "result": 73.5, "unit": "%"}, {"measurement": "viability at 0.04677 µM", "setting": "[2]; IMR-90, Control cells, log (dose) [M] -7.33, individual replicates, SUP FIG 4C, read-out: % Cell Survival", "result": 83, "unit": "%"}, {"measurement": "viability at 0.02188 µM", "setting": "[2]; IMR-90, Control cells, log (dose) [M] -7.66, individual replicates, SUP FIG 4C, read-out: % Cell Survival", "result": 88, "unit": "%"}, {"measurement": "viability at 0.01 µM", "setting": "[2]; IMR-90, Control cells, log (dose) [M] -8, individual replicates, SUP FIG 4C, read-out: % Cell Survival", "result": 102, "unit": "%"}, {"measurement": "viability at 10 µM", "setting": "[2]; IMR-90, Control, log (dose) [M] -5, read-out: % Cell Survival", "result": 96, "unit": "%"}, {"measurement": "viability at 4.68 µM", "setting": "[2]; IMR-90, Control, log (dose) [M] -5.33, read-out: % Cell Survival", "result": 96.2, "unit": "%"}, {"measurement": "viability at 2.19 µM", "setting": "[2]; IMR-90, Control, log (dose) [M] -5.66, read-out: % Cell Survival", "result": 99.1, "unit": "%"}, {"measurement": "viability at 1 µM", "setting": "[2]; IMR-90, Control, log (dose) [M] -6, read-out: % Cell Survival", "result": 96.6, "unit": "%"}, {"measurement": "viability at 0.468 µM", "setting": "[2]; IMR-90, Control, log (dose) [M] -6.33, read-out: % Cell Survival", "result": 97.8, "unit": "%"}, {"measurement": "viability at 0.219 µM", "setting": "[2]; IMR-90, Control, log (dose) [M] -6.66, read-out: % Cell Survival", "result": 99.6, "unit": "%"}, {"measurement": "viability at 0.1 µM", "setting": "[2]; IMR-90, Control, log (dose) [M] -7, read-out: % Cell Survival", "result": 94.1, "unit": "%"}, {"measurement": "viability at 0.04677 µM", "setting": "[2]; IMR-90, Control, log (dose) [M] -7.33, read-out: % Cell Survival", "result": 94.2, "unit": "%"}, {"measurement": "viability at 0.0219 µM", "setting": "[2]; IMR-90, Control, log (dose) [M] -7.66, read-out: % Cell Survival", "result": 97, "unit": "%"}, {"measurement": "viability at 0.01 µM", "setting": "[2]; IMR-90, Control, log (dose) [M] -8, read-out: % Cell Survival", "result": 101, "unit": "%"}, {"measurement": "viability at 10 µM", "setting": "[3]; log (dose) [M] -5", "result": 113, "unit": "%"}, {"measurement": "viability at 4.68 µM", "setting": "[3]; log (dose) [M] -5.33", "result": 107, "unit": "%"}, {"measurement": "viability at 2.19 µM", "setting": "[3]; log (dose) [M] -5.66", "result": 112, "unit": "%"}, {"measurement": "viability at 1 µM", "setting": "[3]; log (dose) [M] -6", "result": 108, "unit": "%"}, {"measurement": "viability at 0.468 µM", "setting": "[3]; log (dose) [M] -6.33", "result": 112, "unit": "%"}, {"measurement": "viability at 0.219 µM", "setting": "[3]; log (dose) [M] -6.66", "result": 104, "unit": "%"}, {"measurement": "viability at 0.1 µM", "setting": "[3]; log (dose) [M] -7", "result": 112, "unit": "%"}, {"measurement": "viability at 0.0468 µM", "setting": "[3]; log (dose) [M] -7.33", "result": 115, "unit": "%"}, {"measurement": "viability at 0.0219 µM", "setting": "[3]; log (dose) [M] -7.66", "result": 103, "unit": "%"}, {"measurement": "viability at 0.01 µM", "setting": "[3]; log (dose) [M] -8", "result": 103, "unit": "%"}]}]}
